These results are taken from article PMC7355942, “Cytotoxicity Evaluation of Novel bis(2-aminoethyl)amine Derivatives” (Molecules, 2020).

A value given as a limit tells only on which side of the number the result lay.

Data set [1] relates to A549 cells (epithelial lung carcinoma). The experiment in a line: MTT cytotoxicity assay, A549. The following applies: for IC50: A549, MTT, mean ± SD; for SI (Selectivity Index): IC50 for normal cell line (HaCaT)/IC50 A549. The class given is cell-based, human. The source says:
(§1) All derivatives of bis(2-aminoethyl)amine were screened for their in vitro cytotoxic activity against a panel of human cancer cell lines, namely colorectal adenocarcinoma (CaCo-2), epithelial lung carcinoma (A549), and melanoma (HTB-140), which is contrary to normal (HaCaT) cell lines, by using the MTT method.
(§2) Description related to conducted biological studies including cell culture, suitable conditions, and methodology was presented in our previous paper.
In general terms: Formazan colour is commonly taken as a measure of viable cells.

For data set [2], the system named is CaCo-2 cells (colorectal adenocarcinoma). The experiment in a line: MTT cytotoxicity assay, CaCo-2. The class given is cell-based, human. As to conditions: for IC50: Homo sapiens, CaCo-2, MTT, mean ± SD; for SI (Selectivity Index): IC50 for normal cell line (HaCaT)/IC50 CaCo-2.
Description: as §1, §2

Data set [3] deals with HaCaT cells (immortal keratinocytes). Put plainly: MTT cytotoxicity assay, HaCaT normal cells. The class given is cell-based, human. The following applies: mean ± SD.
Description: as §1, §2

The subject of the next data set is HTB-140 cells (melanoma). Put plainly: MTT cytotoxicity assay, HTB-140. The class given is cell-based, human. The following applies: for IC50: HTB-140, MTT, mean ± SD; for SI (Selectivity Index): IC50 for normal cell line (HaCaT)/IC50 HTB-140.
Description: as §1, §2

In data set [4] the test system is interleukin-6 (IL-6) secretion, HTB-140 cells. Put plainly: Interleukin-6 assay (ELISA), HTB-140. The class given is cell-based, human. As to conditions: HTB-140, IC50 dose.
Description: (§3) The mechanism of cytotoxic action of bis(2-aminoethyl)-amine derivatives can be associated with reducing interleukin-6 (IL-6) levels, which include the strong pro-inflammatory particles.
as §2
(§4) Figure 9 Effects of compounds 3–6 on IL-6 levels, measured by the ELISA test. Data are expressed as the mean ± SD from three independent experiments, performed in triplicate. *** p ≤ 0.001, ** p ≤ 0.01, * p ≤ 0.05, as compared to the control.
On the technique in general: ELISA stands for enzyme-linked immunosorbent assay.

Data set [5] deals with HaCaT, HTB-140, CaCo-2, A549 cells. Put plainly: Lactate dehydrogenase (LDH) release assay, statements over several cell lines. The class given is cell-based, human. The following applies: pathological cell lines (HTB-140, CaCo-2, A549), 50 µM, 72 h. The procedure: (§5) Lactate dehydrogenase assay (LDH) as a marker of cell death was evaluated for synthesized ethylthioureas 1–7. The compounds were tested at concentrations of 10, 50, and 100 µM. At the lowest dose, no activity was observed.
as §2
(§6) Figure 6 LDH release as a marker of a cell death in the HaCaT, HTB-140, CaCo-2, A549 cells, treated for 72 h with various concentrations of derivatives 3–6 (100 µM for compounds 3–5, 100 and 50 µM for 6). Data are expressed as the mean ± SD from three independent experiments, performed in triplicate. *** p ≤ 0.001, ** p ≤ 0.01, as compared to the control.

Data set [6] has as its system panel of human cancer cell lines (CaCo-2, A549, HTB-140) and normal HaCaT cells. Put plainly: MTT cytotoxicity assay, statements over the whole cell panel. The class given is cell-based. As to conditions: for IC50: Homo sapiens, all cancer cell lines (CaCo-2, A549, HTB-140), read-out: IC50, range over cancer cell lines; for antiproliferative / cytotoxic activity in words: chosen cancer and normal cell lines.
Description: as §1, §2

A further data set has as its system A549 cells. Put plainly: Apoptosis, Annexin V-FITC/7-AAD flow cytometry, A549. The class given is cell-based, human. The following applies: A549, IC50 concentration, 72 h. The procedure:
(§7) To establish in vitro, the anti-proliferative mechanism of activity, the influence of bis(2-aminoethyl)amine derivatives on early and late apoptosis was performed, using flow cytometry analysis (Figure 7).
as §2
(§8) Figure 7 The effect of derivatives 3–6 on early and late apoptosis, or necrosis in HaCaT, CaCo-2, A549, and HTB-140 cells. Cells were incubated for 72 h with tested compounds and used in their IC50 concentrations. Then cells were harvested, stained with Annexin V-FITC and 7-AAD, and analyzed using flow cytometry. Data are expressed as the percentage of cells at an early stage of apoptosis or late stage of apoptosis or necrosis. Data are given as means ± SD, *** p ≤ 0.001, ** p ≤ 0.01, as compared to the control.
Figure 8 The effect of compounds 3–6 on early and late apoptosis or necrosis in A549 cells, detected with Annexin V-FITC/7-AAD by flow cytometry. […] The upper right and upper left quadrants represent the late stage of apoptotic or necrotic cells (Annexin V-FITC positive, 7-AAD positive, Annexin V-FITC negative and 7-AAD positive staining, respectively). The lower left quadrant represents unstained A549 cells (Annexin V-FITC negative, 7-AAD negative). TEXT PRINTED IN THE PICTURE: 3: 0,1; 26,6; 36,9; 36,5 | 4: 0,1; 23,4; 47,2; 29,3 | 5: 0,2; 42,5; 28,4; 28,9 | 6: 0,2; 37,6; 19,5; 42,7 DOUBTS OF THE COPYIST ABOUT THIS PICTURE: 3, lower left quadrant value: 36,9, printed over the dot cloud, so the digits 6 and 9 are not fully certain / 6, lower left quadrant value: 19,5, partly printed over the dot cloud, so the digits 9 and 5 are not fully certain / The quadrant numbers are printed with no measure or unit. They are listed in the order upper left, upper right, lower left, lower right / The Control plot (0,1; 5,2; 87,4; 7,3) was left out because it is not a substance
On the technique in general: Flow cytometry measures light scatter and fluorescence of single cells or particles in a stream.

Data set [7] deals with HaCaT cells (normal keratinocytes). Put plainly: Lactate dehydrogenase (LDH) release assay, HaCaT. The class given is cell-based, human. As to conditions: 72 h. How it is done:
as §5, §2, §6

For a further data set, the system named is CaCo-2 cells. Put plainly: Apoptosis, Annexin V-FITC/7-AAD flow cytometry, CaCo-2. As to conditions: CaCo-2, IC50 concentration, 72 h. The class given is cell-based, human. How it is done:
as §7, §2, §8

Data set [8] relates to interleukin-6 (IL-6) release, A549 cells. The experiment in a line: Interleukin-6 assay (ELISA), A549. The class given is cell-based, human. The following applies: A549, IC50 dose.
Description: as §3, §2, §4

The next data set relates to HTB-140 cells. Put plainly: Apoptosis, Annexin V-FITC/7-AAD flow cytometry, HTB-140. The class given is cell-based, human. As to conditions: HTB-140, IC50 concentration, 72 h. How it is done:
as §7, §2, §8

As to `COc1cccc2c1C(=O)c1c(O)c3c(c(O)c1C2=O)C[C@@](O)(C(=O)CO)C[C@@H]3O[C@H]1C[C@H](N)[C@H](O)[C@H](C)O1` [Doxorubicin, reference compound], the half-inhibitory concentration (IC50) in data set [1] (Homo sapiens) is 0.63 ± 0.21 µM; in [2] it was 0.53 ± 0.23 µM; in data set [3] (Homo sapiens), 1.09 ± 0.23 µM; in the data set on HTB-140 cells (melanoma) (Homo sapiens), 0.47 ± 0.18 µM. Further, the “SI (Selectivity Index)” value was determined as 1.73 in data set [1], 2.06 in data set [2] and 2.32 in the data set on HTB-140 cells (melanoma).
In the case of `S=C(NCCc1ccccc1)NCCN(CCNC(=S)NCCc1ccccc1)C(=S)NCCc1ccccc1` [Compound 6, 3-phenethyl-1,1-bis[2-(3-phenethylthioureido)ethyl]thiourea], the “inhibition of IL-6 secretion, in words” value in data set [4] is on record as “two-fold”. Further, the IC50 in [1] (Homo sapiens) is 15 ± 1.7 µM; in data set [6], 14 to 15.7 µM; in data set [2] it was 15.7 ± 1.7 µM; in data set [3] (Homo sapiens) it was 16.1 ± 5.7 µM; in the data set on HTB-140 cells (melanoma) (Homo sapiens), 14 ± 2.5 µM. Besides, the “SI (Selectivity Index)” value in data set [1] stood at 1.08; in data set [2], 1.02; in the data set on HTB-140 cells (melanoma) it was 1.16. For the same compound, in data set [5], the LDH secretion was 8.09–10.4%. In the data set with A549 cells, the late apoptosis is 37.8%. Moreover, the LDH release is reported as 8.3% in data set [7] (50 µM) and 17.9% in data set [7] (100 µM). The compound further came in with an early apoptosis with CaCo-2 cells of 55.7%.
In the case of `S=C(NCCN(CCNC(=S)Nc1ccc(Cl)cc1)C(=S)Nc1ccc(Cl)cc1)Nc1ccc(Cl)cc1` [Compound 3, 3-(4-chlorophenyl)-1,1-bis{2-[3-(4-chlorophenyl)thioureido]ethyl}thiourea], the “decrease of the IL-6 concentration” value in data set [8] (versus control) was 1.7 times. The half-inhibitory concentration (IC50) in [1] (Homo sapiens) was 25 ± 2.4 µM; in data set [6], 22.6 to 27.7 µM; in data set [2] it was 27.7 ± 3.7 µM; in data set [3] (Homo sapiens), 29.9 ± 1.8 µM; in the data set on HTB-140 cells (melanoma) (Homo sapiens), 22.6 ± 2 µM. Also, the “SI (Selectivity Index)” value in data set [1] is 1.19; in data set [2], 1.08; with HTB-140 cells (melanoma), 1.32. For the same compound, the late apoptosis in the data set with A549 cells turned out to be 23.5%. This compound returned an LDH release in data set [7] (100 µM) of 13.8%.
In the case of `Fc1ccc(NC(=S)NCCN(CCNC(=S)Nc2ccc(F)c(Cl)c2)C(=S)Nc2ccc(F)c(Cl)c2)cc1Cl` [Compound 5, 3-(3-chloro-4-fluorophenyl)-1,1-bis{2-[3-(3-chloro-4-fluorophenyl)thioureido]ethyl}thiourea], the IC50 amounted to 15.4 ± 2.1 µM in data set [1] (Homo sapiens), 17.9 ± 2.8 µM in data set [2], 18.8 ± 4.3 µM in [3] (Homo sapiens) and 14.8 ± 3.2 µM in the data set on HTB-140 cells (melanoma) (Homo sapiens). The “SI (Selectivity Index)” value in data set [1] amounted to 1.21; in data set [2], 1.05; in the data set on HTB-140 cells (melanoma) it was 1.27. The late apoptosis in the data set on A549 cells amounted to 42.7%; in the data set with CaCo-2 cells it was 32.8%.
For `S=C(NCCN(CCNC(=S)Nc1ccc(Br)cc1)C(=S)Nc1ccc(Br)cc1)Nc1ccc(Br)cc1` [Compound 4, 3-(4-bromophenyl)-1,1-bis{2-[3-(4-bromophenyl)thioureido]ethyl}thiourea], the “inhibition of interleukin release as compared to the control, in words” value in data set [8] was “tenfold”. Moreover, the IC50 in data set [1] (Homo sapiens) is 16.8 ± 1.9 µM; in data set [2] it was 17.2 ± 1.9 µM; in data set [3] (Homo sapiens), 19.3 ± 3.5 µM; in the data set with HTB-140 cells (melanoma) (Homo sapiens), 14.7 ± 1.5 µM. Besides, the results for the “SI (Selectivity Index)” value (in data set [1]; in [2]; in the data set with HTB-140 cells (melanoma)) were 1.15, 1.12 and 1.35, respectively. The compound also yielded a late apoptosis in the data set with A549 cells of 26.7%. The compound further gave an early apoptosis in the data set on HTB-140 cells of 28.6%.
As for `S=C(NCCN(CCNC(=S)Nc1ccccc1)C(=S)Nc1ccccc1)Nc1ccccc1` [Compound 2, 3-phenyl-1,1-bis[2-(3-phenylthioureido)ethyl]thiourea], the IC50 (in data set [1] (Homo sapiens); in data set [2]; in data set [3] (Homo sapiens); in the data set with HTB-140 cells (melanoma) (Homo sapiens)) was over 100 µM throughout. In addition, in data set [6], the “antiproliferative / cytotoxic activity in words” value is “biologically inactive”.
Turning to `COc1ccc(NC(=S)N(CCNc2nnnn2-c2ccc(OC)cc2)CCNc2nnnn2-c2ccc(OC)cc2)cc1` [Compound 7, 3-(4-methoxyphenyl)-1,1-bis(2-{[1-(4-methoxyphenyl)-1H-tetrazol-5-yl]amino}ethyl)thiourea], the half-maximal inhibitory concentration (IC50) (in [1] (Homo sapiens); in [2]; in data set [3] (Homo sapiens); in the data set on HTB-140 cells (melanoma) (Homo sapiens)) was over 100 µM each time. Besides, the “antiproliferative / cytotoxic activity in words” value in data set [6] was “biologically inactive”.
For `N.N.[Cl][Pt][Cl]` [Cisplatin, reference compound], the IC50 in data set [1] came to 1.95 ± 0.83 µM; in data set [3], 2.84 ± 1.06 µM; in the data set with HTB-140 cells (melanoma), 1.13 ± 0.19 µM.
With `COc1ccc(NC(=S)NCCN(CCNC(=S)Nc2ccc(OC)cc2)C(=S)Nc2ccc(OC)cc2)cc1` [Compound 1, 3-(4-methoxyphenyl)-1,1-bis{2-[3-(4-methoxyphenyl)-thioureido]ethyl}thiourea], the IC50 (in data set [1] (Homo sapiens); in data set [2]; in [3] (Homo sapiens); in the data set with HTB-140 cells (melanoma) (Homo sapiens)) was over 100 µM in each case. Moreover, in data set [6], the “antiproliferative / cytotoxic activity in words” value is “biologically inactive”.

A word on the IC50: it is the point on the concentration scale where inhibition reaches its midpoint.
